Test results: US12691101B2, “Compound and method for preventing or treating of respiratory diseases comprising the same as an active ingredient” (YONSEI UNIVERSITY, UNIVERSITY - INDUSTRY FOUNDATION (UIF), priority 2019, dated 2026)
pIC50: −log10 of the molar value.

Legend:
Duox1 and Duox2 mRNA = assay: Real-time PCR of Duox1 and Duox2 mRNA in IL-4-treated HNE cells; assay type: cell-based, human
Procedure: (§1) The total messenger RNA (mRNA) was extracted using TRIzol reagent (Invitrogen, Carlsbad, CA, USA), and was reverse-transcribed using a random hexamer primer, an oligo(dT) primer and SuperScript® III reverse transcriptase (Invitrogen). Quantitative real-time PCR was performed using StepOnePlus Real-Time PCR system (Applied Biosystems, Foster City, CA, USA) and Thunderbird SYBR qPCR mix (Tokyobo, Osaka, Japan). Thermal cycling conditions included the initial stage at 95° C. for 5 minutes, and subsequent 40 cycles at 95° C. for 10 seconds, at 55° C. for 20 seconds and at 72° C. for […].

SLC26A6 = biological target: T1, SLC26A6 (Homo sapiens, UniProt Q9BXS9); assay: Cl^−/HCO3^− exchange in CHO-K1 cells expressing SLC26A6; assay type: cell-based; settings: weakly inhibited
T1 construct: expressed in transfected cells; host or cells: CHO-K1
Procedure: (§2) (A) The inhibition of mouse pendrin (mPDS)-mediated Cl^−/I^− exchange activity by F56 was measured in CHO-K1 cells (mean±S.E., n=5). The indicated concentration of F56 was pretreated for 10 minutes. (B) Summary of dose-response for inhibition of the human pendrin (hPDS)-mediated (closed circle, FIG. (a), C) and mPDS-mediated (open circle) Cl^−/I^− exchange activity. (C-F) Representative traces of intracellular pH in CHO-K1 cells expressing SLC26A3, SLC26A6, SLC26A7 and SLC26A9 were shown. The application of Cl^− free solution induced intracellular alkalization by Cl^−/HCO3^− exchange. The indicated concentration of F56 was pretreated for 10 minutes. (G) the effect of F56 (100 μM) on the CFTR chloride channel activity was measured in FRT cells expressing human CFTR. The CFTR current was activated by 20 μM forskolin and was inhibited by 10 μM CFTRinh-172. (H) The effect of F56 (100 μM) on the AN01 chloride channel activity was measured in FRT cells expressing human AN01. Before 10 minutes prior to AN01 activation by 100 μM ATP, F56 was added. (Right) Peak current summary (mean±S.E., n=3). (I) The effect of F56 on the hERG (Kv11.1) potassium channel activity was measured in HEK293T cells expressing human Kv11.1 (mean±S.E., n=4). […] (J) The effect of F56 on the 5-HT2A channel activity was measured in FRT cells expressing human 5-HT2A (mean±S.E., n=4). […]

human 5-HT2A = biological target: T2, human 5-HT2A (Homo sapiens, UniProt P28223); assay: 5-HT2A activity in FRT cells; assay type: cell-based; settings: pretreated 10 minutes
T2 construct: expressed in transfected cells; host or cells: FRT cells co-expressing ANO1(abc) and YFP-F46L/H148Q/I152L
Procedure: as §2

Duox2 mRNA = Duox2 mRNA expression in LPS-treated hAEC, real-time PCR; assay type: cell-based, human
Procedure: as §1

SCN^− transport = assay: Epithelial SCN^− transport in IL-4-treated HNE cells; assay type: cell-based, human; settings: 30 μM, 30 minutes
Procedure: Nasal epithelial cells were plated on a transwell permeable supporter and cultured in ALI (air-liquid interface) for 14 days. After completely differentiated epithelial cells were cultured with IL-4 (Invitrogen, 10 ng/mL) for 48 hours, F56 (30 μM) or vehicle was added for 30 minutes. The transwell insert having cells was washed with PBS and the basal side was treated with 1 mL PBS containing 10 mM glucose and 5 μCi S^14CN (total concentration SCN^−: 86 μM). The apical side of the transwell was filled with 0.5 mL PBS containing 5 μM amiloride to block epithelial sodium. Subsequently, the apical fluid was collected every 5 minutes and placed in scintillation vials for evaluation of radioactivity.

pendrin mRNA = assay: Pendrin mRNA expression in LPS-treated hAEC, real-time PCR; assay type: cell-based, human
Procedure: as §1

HNE cells = assay: ASL and fluid meniscus volume measurement in HNE cells; assay type: cell-based, human
Procedure: The total volume of ASL and fluid meniscus, which is fluid with the cell culture insert wall, was measured by fluid absorption through filter paper. Whatman filter paper (10 mm diameter circle; GE Healthcare) was placed on the apical size of a 12-well transwell insert (Costar Co.) for 10 seconds. The absorption of the ASL and fluid meniscus was measured from the weight change of the filter paper. The weight of the filter paper was measured using an analysis scale (Sartorius BP61S; Sartorius AG, Gottingen, Germany).

SLC26A3 = biological target: T3, SLC26A3 (Homo sapiens, UniProt P40879); assay: Cl^−/HCO3^− exchange in CHO-K1 cells expressing SLC26A3; assay type: cell-based; settings: weakly inhibited
T3 construct: expressed in transfected cells; host or cells: CHO-K1
Procedure: as §2

T3 sequence (P40879 whole entry, species assumed): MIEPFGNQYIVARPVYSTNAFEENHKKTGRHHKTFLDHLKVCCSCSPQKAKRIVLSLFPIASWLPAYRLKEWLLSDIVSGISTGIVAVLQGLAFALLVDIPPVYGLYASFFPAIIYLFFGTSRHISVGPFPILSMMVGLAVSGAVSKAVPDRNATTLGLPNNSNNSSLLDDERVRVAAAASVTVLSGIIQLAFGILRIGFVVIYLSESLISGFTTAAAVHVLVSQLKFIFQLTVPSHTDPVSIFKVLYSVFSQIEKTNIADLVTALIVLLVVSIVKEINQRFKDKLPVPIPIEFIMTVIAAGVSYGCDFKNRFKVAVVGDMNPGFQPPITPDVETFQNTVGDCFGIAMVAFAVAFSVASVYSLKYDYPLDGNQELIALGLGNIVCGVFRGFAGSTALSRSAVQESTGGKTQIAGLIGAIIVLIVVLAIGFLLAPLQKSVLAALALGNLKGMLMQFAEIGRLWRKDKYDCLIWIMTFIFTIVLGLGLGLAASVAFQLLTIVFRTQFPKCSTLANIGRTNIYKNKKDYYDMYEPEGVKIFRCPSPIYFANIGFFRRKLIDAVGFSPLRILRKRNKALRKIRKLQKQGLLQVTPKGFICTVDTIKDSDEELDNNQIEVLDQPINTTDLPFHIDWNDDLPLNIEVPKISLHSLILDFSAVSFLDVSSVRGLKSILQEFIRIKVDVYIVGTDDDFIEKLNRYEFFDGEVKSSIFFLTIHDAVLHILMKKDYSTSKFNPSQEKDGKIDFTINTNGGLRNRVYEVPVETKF
T1 sequence (Q9BXS9 whole entry, species assumed): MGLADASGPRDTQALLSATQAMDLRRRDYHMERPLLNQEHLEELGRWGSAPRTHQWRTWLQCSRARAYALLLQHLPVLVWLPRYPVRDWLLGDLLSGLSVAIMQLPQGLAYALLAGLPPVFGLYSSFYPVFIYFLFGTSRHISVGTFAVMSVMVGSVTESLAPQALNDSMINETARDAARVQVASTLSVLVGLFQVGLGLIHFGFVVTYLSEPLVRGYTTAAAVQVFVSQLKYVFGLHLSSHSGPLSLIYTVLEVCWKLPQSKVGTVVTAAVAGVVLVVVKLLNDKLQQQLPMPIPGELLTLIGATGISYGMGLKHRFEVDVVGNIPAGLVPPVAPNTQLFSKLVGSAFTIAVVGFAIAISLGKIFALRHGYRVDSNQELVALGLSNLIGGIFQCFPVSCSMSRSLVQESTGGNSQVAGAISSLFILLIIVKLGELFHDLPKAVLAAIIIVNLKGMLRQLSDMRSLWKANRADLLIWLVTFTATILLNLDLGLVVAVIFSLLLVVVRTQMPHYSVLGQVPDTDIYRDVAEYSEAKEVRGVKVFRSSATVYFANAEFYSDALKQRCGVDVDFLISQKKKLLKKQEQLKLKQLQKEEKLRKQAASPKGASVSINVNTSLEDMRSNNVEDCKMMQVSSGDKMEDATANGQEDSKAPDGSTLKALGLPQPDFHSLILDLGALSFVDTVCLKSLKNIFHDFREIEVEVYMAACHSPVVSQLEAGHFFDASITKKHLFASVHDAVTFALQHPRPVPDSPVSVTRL

Q: CC(C)(C)c1ccc(C2=NC(=Cc3cccs3)C(=O)O2)cc1 [F56, 2-(4-(tert-butyl)phenyl)-4-(thiophen-2-ylmethylene)oxazol-5(4H)-one] was tested. Which “mRNA expression of Duox1 or Duox2” value (Duox1 and Duox2 mRNA) did it give?
A: The value was “did not affect”.

Q: What about the pIC50 (SLC26A6) of the same molecule?
A: The pIC50 was under 4.00.

Q: What about the “effect on 5-HT2A activity” value (human 5-HT2A) of the same molecule?
A: The value was “not affected”.

Q: And the “mRNA expression level of Duox2” value (Duox2 mRNA)?
A: Its value is “did not change”.

Q: What about the “SCN^− concentration on the apical surface” value (SCN^− transport) of the same molecule?
A: Its value is “inhibited”.

Q: And the “mRNA expression level of pendrin” value (pendrin mRNA)?
A: The value was “did not change”.

Q: What about the “total volume of ASL and fluid meniscus” value (HNE cells; IL-4-treated HNE cells expressing a mutant pendrin) of the same molecule?
A: The value was “not changed”.

Q: And the “total volume of ASL and fluid meniscus” value (HNE cells; IL-4 and IL-13-treated HNE cells expressing wild-type pendrin)?
A: Its value is “hardly reduced”.

Q: And the pIC50 (SLC26A3)?
A: The pIC50 was under 4.00.
